In PubChem BioAssay (NCI):
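Briefly, cells in 96-well plates were exposed to five compound concentrations for 48 h, and endpoints were estimated by linear interpolation. TGI: total growth inhibition.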

Legend:
Experiment in all cases: growth of human tumour cells (NCI), 48 h
SN12C renal = tested on: SN12C renal
HL-60(TB) leukemia = tested on: HL-60(TB) leukemia
UACC-257 melanoma = tested on: UACC-257 melanoma
SF-295 CNS = tested on: SF-295 CNS
SNB-75 CNS = tested on: SNB-75 CNS
MOLT-4 leukemia = tested on: MOLT-4 leukemia
MALME-3M melanoma = tested on: MALME-3M melanoma
HCT-15 colon = tested on: HCT-15 colon
LXFL 529 NSCLC = tested on: LXFL 529 NSCLC
TK-10 renal = tested on: TK-10 renal
RXF-631 renal = tested on: RXF-631 renal
DMS 273 small cell lung = tested on: DMS 273 small cell lung
SNB-78 CNS = tested on: SNB-78 CNS
SK-MEL-5 melanoma = tested on: SK-MEL-5 melanoma
HCC-2998 colon = tested on: HCC-2998 colon
HOP-18 NSCLC = tested on: HOP-18 NSCLC
OVCAR-4 ovarian = tested on: OVCAR-4 ovarian
COLO 205 colon = tested on: COLO 205 colon
A549 NSCLC = tested on: A549 NSCLC
KM12 colon = tested on: KM12 colon
HOP-92 NSCLC = tested on: HOP-92 NSCLC
M14 melanoma = tested on: M14 melanoma
LOX IMVI melanoma = tested on: LOX IMVI melanoma
786-0 renal = tested on: 786-0 renal
SR leukemia = tested on: SR leukemia
RPMI-8226 leukemia = tested on: RPMI-8226 leukemia
U251 CNS = tested on: U251 CNS
DLD-1 colon = tested on: DLD-1 colon
RXF 393 renal = tested on: RXF 393 renal
CAKI-1 renal = tested on: CAKI-1 renal
SW-620 colon = tested on: SW-620 colon
KM20L2 colon = tested on: KM20L2 colon
NCI-H522 lung = tested on: NCI-H522 lung
HOP-62 NSCLC = tested on: HOP-62 NSCLC
SNB-19 CNS = tested on: SNB-19 CNS
SK-OV-3 ovarian = tested on: SK-OV-3 ovarian
ACHN renal = tested on: ACHN renal
SK-MEL-28 melanoma = tested on: SK-MEL-28 melanoma
NCI-H226 lung = tested on: NCI-H226 lung
SF-268 CNS = tested on: SF-268 CNS
XF 498 CNS = tested on: XF 498 CNS
NCI-H23 lung = tested on: NCI-H23 lung
HCT-116 colon = tested on: HCT-116 colon
SK-MEL-2 melanoma = tested on: SK-MEL-2 melanoma
OVCAR-5 ovarian = tested on: OVCAR-5 ovarian
UO-31 renal = tested on: UO-31 renal
A498 renal = tested on: A498 renal
EKVX NSCLC = tested on: EKVX NSCLC
NCI-H460 lung = tested on: NCI-H460 lung
IGROV1 ovarian = tested on: IGROV1 ovarian
UACC-62 melanoma = tested on: UACC-62 melanoma
CCRF-CEM leukemia = tested on: CCRF-CEM leukemia
OVCAR-8 ovarian = tested on: OVCAR-8 ovarian
OVCAR-3 ovarian = tested on: OVCAR-3 ovarian
SF-539 CNS = tested on: SF-539 CNS
K-562 leukemia = tested on: K-562 leukemia
M19-MEL melanoma = tested on: M19-MEL melanoma
HT29 colon = tested on: HT29 colon

Q: Which results are given for C#CCn1c(=O)[nH]c(=O)c2cccnc21?
A: TGI (SN12C renal): > 100 µM; TGI (HL-60(TB) leukemia): > 100 µM; TGI (UACC-257 melanoma): > 100 µM; TGI (SF-295 CNS): > 100 µM; TGI (SNB-75 CNS): > 100 µM; TGI (MOLT-4 leukemia): > 100 µM; TGI (MALME-3M melanoma): > 100 µM; TGI (HCT-15 colon): > 100 µM; TGI (LXFL 529 NSCLC): > 100 µM; TGI (TK-10 renal): > 100 µM; TGI (RXF-631 renal): > 100 µM; TGI (DMS 273 small cell lung): > 100 µM; TGI (SNB-78 CNS): > 100 µM; TGI (SK-MEL-5 melanoma): > 100 µM; TGI (HCC-2998 colon): > 100 µM; TGI (HOP-18 NSCLC): > 100 µM; TGI (OVCAR-4 ovarian): > 100 µM; TGI (COLO 205 colon): > 100 µM; TGI (A549 NSCLC): > 100 µM; TGI (KM12 colon): > 100 µM; TGI (HOP-92 NSCLC): > 100 µM; TGI (M14 melanoma): > 100 µM; TGI (LOX IMVI melanoma): > 100 µM; TGI (786-0 renal): > 100 µM; TGI (SR leukemia): > 100 µM; TGI (RPMI-8226 leukemia): > 100 µM; TGI (U251 CNS): > 100 µM; TGI (DLD-1 colon): > 100 µM; TGI (RXF 393 renal): > 100 µM; TGI (CAKI-1 renal): > 100 µM; TGI (SW-620 colon): > 100 µM; TGI (KM20L2 colon): > 100 µM; TGI (NCI-H522 lung): > 100 µM; TGI (HOP-62 NSCLC): > 100 µM; TGI (SNB-19 CNS): > 100 µM; TGI (SK-OV-3 ovarian): > 100 µM; TGI (ACHN renal): > 100 µM; TGI (SK-MEL-28 melanoma): > 100 µM; TGI (NCI-H226 lung): > 100 µM; TGI (SF-268 CNS): > 100 µM; TGI (XF 498 CNS): > 100 µM; TGI (NCI-H23 lung): > 100 µM; TGI (HCT-116 colon): > 100 µM; TGI (SK-MEL-2 melanoma): > 100 µM; TGI (OVCAR-5 ovarian): > 100 µM

Q: Which TGI (UO-31 renal) does the source give for Cc1cc(C)nc(NS(=O)(=O)c2ccc(NC(=O)c3cccc4c(Nc5ccc(S(=O)(=O)N=C(N)N)cc5)c5ccccc5nc34)cc2)n1 here?
A: > 100 µM

Q: And the TGI (SN12C renal)?
A: > 100 µM

Q: And the TGI (HL-60(TB) leukemia)?
A: 26.6 µM

Q: What about the TGI (UACC-257 melanoma) of the same compound?
A: 60 µM

Q: What about the TGI (SF-295 CNS) of the same compound?
A: > 100 µM

Q: And the TGI (SNB-75 CNS)?
A: > 100 µM

Q: And the TGI (A498 renal)?
A: > 100 µM

Q: And the TGI (MOLT-4 leukemia)?
A: > 100 µM

Q: What about the TGI (MALME-3M melanoma) of the same compound?
A: > 100 µM

Q: What about the TGI (EKVX NSCLC) of the same compound?
A: 83.2 µM

Q: And the TGI (HCT-15 colon)?
A: > 100 µM

Q: And the TGI (LXFL 529 NSCLC)?
A: 59.1 µM

Q: What about the TGI (TK-10 renal) of the same compound?
A: 92.3 µM

Q: And the TGI (NCI-H460 lung)?
A: > 100 µM

Q: What about the TGI (RXF-631 renal) of the same compound?
A: > 100 µM

Q: And the TGI (DMS 273 small cell lung)?
A: 80.6 µM

Q: What about the TGI (SNB-78 CNS) of the same compound?
A: 99.2 µM

Q: And the TGI (SK-MEL-5 melanoma)?
A: > 100 µM

Q: And the TGI (HCC-2998 colon)?
A: 22.6 µM

Q: And the TGI (HOP-18 NSCLC)?
A: > 100 µM

Q: What about the TGI (OVCAR-4 ovarian) of the same compound?
A: 43.7 µM

Q: What about the TGI (COLO 205 colon) of the same compound?
A: > 100 µM

Q: And the TGI (A549 NSCLC)?
A: > 100 µM

Q: And the TGI (KM12 colon)?
A: 26.9 µM

Q: And the TGI (HOP-92 NSCLC)?
A: 81.7 µM

Q: And the TGI (M14 melanoma)?
A: > 100 µM

Q: What about the TGI (LOX IMVI melanoma) of the same compound?
A: > 100 µM

Q: What about the TGI (IGROV1 ovarian) of the same compound?
A: > 100 µM

Q: And the TGI (UACC-62 melanoma)?
A: > 100 µM

Q: What about the TGI (786-0 renal) of the same compound?
A: 83.6 µM

Q: What about the TGI (CCRF-CEM leukemia) of the same compound?
A: > 100 µM

Q: And the TGI (OVCAR-8 ovarian)?
A: > 100 µM

Q: And the TGI (RPMI-8226 leukemia)?
A: > 100 µM

Q: What about the TGI (U251 CNS) of the same compound?
A: > 100 µM

Q: And the TGI (DLD-1 colon)?
A: 42.8 µM

Q: And the TGI (RXF 393 renal)?
A: 52 µM

Q: And the TGI (CAKI-1 renal)?
A: 55.2 µM

Q: What about the TGI (SW-620 colon) of the same compound?
A: 42.4 µM

Q: What about the TGI (KM20L2 colon) of the same compound?
A: > 100 µM

Q: What about the TGI (NCI-H522 lung) of the same compound?
A: > 100 µM

Q: What about the TGI (HOP-62 NSCLC) of the same compound?
A: 94.3 µM

Q: What about the TGI (SNB-19 CNS) of the same compound?
A: > 100 µM

Q: And the TGI (SK-OV-3 ovarian)?
A: > 100 µM

Q: What about the TGI (ACHN renal) of the same compound?
A: > 100 µM

Q: And the TGI (SK-MEL-28 melanoma)?
A: 99.8 µM

Q: And the TGI (OVCAR-3 ovarian)?
A: 35.5 µM

Q: What about the TGI (SF-268 CNS) of the same compound?
A: > 100 µM

Q: What about the TGI (XF 498 CNS) of the same compound?
A: > 100 µM

Q: And the TGI (NCI-H23 lung)?
A: > 100 µM

Q: What about the TGI (SF-539 CNS) of the same compound?
A: > 100 µM

Q: And the TGI (K-562 leukemia)?
A: > 100 µM

Q: What about the TGI (M19-MEL melanoma) of the same compound?
A: > 100 µM

Q: What about the TGI (HCT-116 colon) of the same compound?
A: > 100 µM

Q: What about the TGI (HT29 colon) of the same compound?
A: > 100 µM

Q: What about the TGI (SK-MEL-2 melanoma) of the same compound?
A: > 100 µM

Q: And the TGI (OVCAR-5 ovarian)?
A: > 100 µM
